Experiments:
[1] = system: purified B cells; assay: B cell proliferation in vitro (anti-CD40, 3H-thymidine incorporation); type: cell-based; conditions: anti-CD40 stimulation, 72 h; for IC50: B-cell, read-out: IC50 for inhibition of B cell proliferation; for B cell proliferation: varying doses
Description: FIG. 7 is a graphical representation depicting that 3,4-DAA and 3-HAA inhibit B and T cell proliferation in vitro. Purified B and T cells were stimulated for 72 h with anti-CD40 (a), or anti-CD3/anti-CD28 (b) respectively, in the presence of varying doses of 3,4-DAA, or 3-HAA.
A single cell suspension was prepared by pushing splenic tissue through a cell strainer, and erythrocytes were lysed using an ammonium chloride solution (Sigma, St Louis, Mo.). B cells were positively enriched by using anti-IgM microbeads (BD Pharmingen), and T cells were positively enriched using anti-CD4 MACS microbeads, according to the manufacturer's guidelines (Miltenyi Biotec, Bergisch Gladbach, Germany). Purity was assessed by flow cytometric analysis (B cell>90% CD19+, T cell>90% CD4+). Cells were cultured at 5×10^5 cells/ml in 200 μl complete RPMI, as above, in a flat bottom 96-well plate and cultured for 72 h. B cells were stimulated with anti-CD40 monoclonal antibody (10 μg/ml; BD), and T cells were stimulated with 5 μg/ml plate-bound anti-CD3 (ebiosciences) plus 5 μg/ml soluble anti-CD28 (ebiosciences). 3,4-DAA, 3-HAA, or vehicle (DMSO) was added at graded concentrations immediately prior to stimulation. 48 hours after stimulation, 100 μl culture medium was collected, and cells were pulsed with 1 μCi ^3H thymidine per well for 18 h. Cells were then harvested and plates assessed for thymidine incorporation. Each assay was performed on a minimum of 3 occasions. IFN-γ, IL-10 and IL-5 levels were assessed in the culture medium by ELISA, as above.
Activation of purified B (FIG. 7a) and T cells (FIG. 7b) was induced by anti-CD40, and anti-CD3/CD28 respectively, and proliferation was assessed by ^3H-thymidine incorporation. […] Inhibition of proliferation was also observed when B cells were stimulated with LPS or anti-IgM. […] It was concluded that the effects of 3,4-DAA and 3-HAA on T and B cells in vitro were remarkably similar, though not identical. It is of also note that 3-HAA had no action on inflammation or allodynia, when administered therapeutically in CIA at doses of up to 400 mg/kg/day.

[2] = system: established CIA; assay: Treatment of established collagen-induced arthritis (clinical score, paw swelling, histology, relapse); type: in vivo, DBA/1 mice
Description: FIG. 2 is a graphical representation of the treatment of established CIA with 3,4-DAA. DBA/1 mice were immunised with type II collagen in CFA and monitored for development of arthritis. On day 1 of arthritis, mice were injected intraperitoneally with 3,4-DAA on a daily basis. Paw thickness was measured with callipers. The clinical scoring system was as follows: 0=normal, 1=slight swelling and/or erythema, and 2=pronounced oedematous swelling. Each limb was graded, giving a maximum score of 8 per mouse. Histological assessment of arthritis was carried out on haematoxylin and eosin stained sections using a scoring system as follows: 0, normal; 1, minimal synovitis without cartilage/bone erosion; 2, synovitis with some marginal erosion but joint architecture maintained; 3, severe synovitis and erosion with loss of normal joint architecture. There were 14 mice/group (data pooled from two separate experiments).
FIG. 5 is a graphical representation of the relapse of arthritis 4 days after cessation of therapy. Mice with established CIA (n=6) were treated with 3,4-DAA (400 mg/kg/day) from days 1 to 5 of arthritis and clinical severity of arthritis was monitored up to day 12. Arthritis is seen to relapse at around day 9.
Type II collagen was purified from bovine cartilage, as described [Williams 2004, Methods Mol. Med. 98:207-216] and solubilized by stirring overnight at 4° C. in acetic acid (0.1M) or Tris buffer (0.05 M Tris, containing 0.2 M NaCl, pH 7.4). 3,4-DAA was synthesised by Angiogen Pharmaceuticals Pty. Ltd. For in vivo studies 3,4-DAA was dissolved at a maximum concentration of 10 mg/ml in 1% sodium bicarbonate by heating for 1 h at 70° C. Upon cooling, an emulsion was formed. For in vitro studies 3,4-DAA was dissolved in dimethyl sulphoxide (DMSO). 3-Hydroxy-anthranilic acid (3-HAA) was purchased from Sigma (Poole, UK) and dissolved in PBS.
Male DBA/1 mice (8-12 weeks old) were immunized intradermally at the base of the tail with bovine type II collagen (200 μg) emulsified in complete Freund's adjuvant (CFA; Difco, West Molesley, UK). Arthritis was monitored clinically using the following scoring system: 0=normal, 1=slight swelling and/or erythema, and 2=pronounced oedematous swelling. Each limb was graded, giving a maximum score of 8 per mouse. In addition, paw-swelling was measured using callipers.
Histopathological assessment of arthritis was carried out in a ‘blinded’ fashion on decalcified haematoxylin and eosin stained sections using a scoring system as follows: 0, normal; 1, minimal synovitis without cartilage/bone erosion; 2, synovitis with some marginal erosion but joint architecture maintained; 3, severe synovitis and erosion with loss of normal joint architecture. This research was approved by the local ethical review process committee and by the Home Office of Great Britain.
The ability of 3,4-DAA to treat established CIA was tested. Mice were immunised with type II collagen in CFA. On day 1 of clinical arthritis (the day that arthritis was first observed) mice were randomly assigned to different treatment groups and given 3,4-DAA (100 mg/kg/day, 200 mg/kg/day or 400 mg/kg/day) or vehicle alone over a 10 day period. […] Significant differences between 3,4-DAA treated and control mice were observed from day 3 until the end of the treatment period (day 10). On day 10 the mice were killed and the first paw to show clinical evidence of arthritis was processed for histology. Joints were examined ‘blindly’ for severity of inflammation and joint erosion.
Therefore, it is clearly of interest to establish what happens in vivo when treatment with 3,4-DAA is stopped. Is there a disease flare and if so, does it occur immediately after cessation of treatment? […] Treatment was then stopped and mice were monitored for a further 7 days.

[3] = established CIA, 100, 200 or 400 mg/kg/day over 10 days
[4] = up to 10 days therapy, 3,4-DAA 200 mg/kg/day, dexamethasone 0.5 mg/kg/2 days

| Structure (SMILES) | IC50 [1] | B cell proliferation [1] | arthritis severity during the treatment period ([2]; 400 mg/kg/day from day 1 to day 5 of arthritis) | day of arthritis on which exacerbation/relapse was observed after treatment stopped on day 5 ([2]; 400 mg/kg/day from days 1 to 5, monitored up to day 12) | clinical scores [2, 3] | paw-swelling [2, 3] | histological severity of arthritis ([2]; established CIA, 100, 200 or 400 mg/kg/day, day 10) | clinical score [2, 4] | paw swelling [2, 4] | action on inflammation in CIA ([2]; administered therapeutically at doses of up to 400 mg/kg/day) |
| --- | --- | --- | --- | --- | --- | --- | --- | --- | --- | --- |
| COc1ccc(/C=C/C(=O)Nc2ccccc2C(=O)O)cc1OC [Tranilast, 2-[[3-(3,4-dimethoxyphenyl)-1-oxo-2-propenyl]amino]benzoic acid] | 73 µM | dose-dependently inhibited | dramatic reduction | 9 days | dose-dependent reduction | dose-dependent reduction | dose-dependent reduction | significantly reduced | significantly reduced | – |
| Nc1c(O)cccc1C(=O)O [3-Hydroxyanthranilic acid] | 65 µM | dose-dependently inhibited | – | – | – | – | – | – | – | no action |

— patent US20090197957A1, “Methods and compositions for the treatment of pain” (Nuon Therapeutics, Inc., priority 2005, published 2009)
